In BindingDB's records for doi:10.1016/0960-894X(96)00091-1 (1996):

Biological target: Endothelin-converting enzyme 1 (Sus scrofa)
Assay: Compound was evaluated for inhibition of Endothelin-converting enzyme 1 partially purified from porcine primary aortic endothelial cells

IC50 [µM]	Compound
6.5	O=C(N[C@@H](CS)Cc1c[nH]c2ccccc12)C1CCN(C(=O)Cc2ccc(-c3ccccc3)cc2)CC1 [1-(2-Biphenyl-4-yl-acetyl)-piperidine-4-carboxylic acid [(R)-2-(1H-indol-3-yl)-1-mercaptomethyl-ethyl]-amide]
5.2	O=C(Cc1ccc(-c2ccccc2)cc1)N[C@@H](CS)Cc1cccnc1 [2-Biphenyl-4-yl-N-((R)-1-mercaptomethyl-2-pyridin-3-yl-ethyl)-acetamide]
5.4	O=C(CCC(C(=O)O)c1ccccc1)N[C@@H](CS)Cc1c[nH]c2ccccc12 (stereo partly drawn) [4-[(R)-2-(1H-Indol-3-yl)-1-mercaptomethyl-ethylcarbamoyl]-2-phenyl-butyric acid]
7.7	O=C(Cc1ccc(OCc2cccnc2)cc1)N[C@@H](CS)Cc1c[nH]c2ccccc12 [N-[(R)-2-(1H-Indol-3-yl)-1-mercaptomethyl-ethyl]-2-[4-(pyridin-3-ylmethoxy)-phenyl]-acetamide]
5.2	O=C(N[C@@H](CS)Cc1c[nH]c2ccccc12)c1cccs1 [Thiophene-2-carboxylic acid [(R)-2-(1H-indol-3-yl)-1-mercaptomethyl-ethyl]-amide]
